Laboratory results published in the supplement of paper PMC10307832.

Tests used:
Experiment in all cases: relative viability (nuclei count vs DMSO), 5 days (fraction); higher = more cells survive
Temozolomide + Lapatinib = compound: Cn1nnc2c(C(N)=O)ncn2c1=O [Temozolomide] + CS(=O)(=O)CCNCc1ccc(-c2ccc3ncnc(Nc4ccc(OCc5cccc(F)c5)c(Cl)c4)c3c2)o1 [Lapatinib] (partner 2 µM)
Summary of the method: (§1)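 Nuclei were stained with Hoechst during a one-step fixation (final 0.05% Triton X-100, 1% formaldehyde, 1 ug/ml Hoechst) carried out 5 days after dosing, then counted on 4× images. The cells, lung cancer lines in 1536-well plates, had been dosed by pin tool the day after seeding with one drug alone or a fixed anchor-drug dose plus five library-drug doses (not always all listed) in √10 steps. Relative viability is the nuclei count in treated wells divided by that in vehicle wells, and each value is the median of duplicate plates.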

AZD5582 + Pictilisib = compound: C[C@@H](C(=O)N[C@@H](C1CCCCC1)C(=O)N2CCC[C@H]2C(=O)N[C@@H]3[C@@H](CC4=CC=CC=C34)OCC#CC#CCO[C@@H]5CC6=CC=CC=C6[C@@H]5NC(=O)[C@@H]7CCCN7C(=O)[C@H](C8CCCCC8)NC(=O)[C@H](C)NC)NC [AZD5582] + CS(=O)(=O)N1CCN(Cc2cc3nc(-c4cccc5[nH]ncc45)nc(N4CCOCC4)c3s2)CC1 [Pictilisib] (partner 1 µM)
Summary of the method: as §1

AZD5582 + OSI-027 = compound: C[C@@H](C(=O)N[C@@H](C1CCCCC1)C(=O)N2CCC[C@H]2C(=O)N[C@@H]3[C@@H](CC4=CC=CC=C34)OCC#CC#CCO[C@@H]5CC6=CC=CC=C6[C@@H]5NC(=O)[C@@H]7CCCN7C(=O)[C@H](C8CCCCC8)NC(=O)[C@H](C)NC)NC [AZD5582] + COc1cccc2cc(-c3nc([C@H]4CC[C@H](C(=O)O)CC4)n4ncnc(N)c34)[nH]c12 [OSI-027] (partner 0.5 µM)
Summary of the method: as §1

Temozolomide + Dasatinib = compound: Cn1nnc2c(C(N)=O)ncn2c1=O [Temozolomide] + Cc1nc(Nc2ncc(C(=O)Nc3c(C)cccc3Cl)s2)cc(N2CCN(CCO)CC2)n1 [Dasatinib] (partner 0.075 µM)
Summary of the method: as §1

Row | Cell Line | relative viability (Temozolomide + Lapatinib; first compound 0.2 µM) | relative viability (Temozolomide + Lapatinib; first compound 0.6325 µM) | relative viability (Temozolomide + Lapatinib; first compound 2 µM) | relative viability (Temozolomide + Lapatinib; first compound 6.325 µM) | relative viability (Temozolomide + Lapatinib; first compound 20 µM) | relative viability (AZD5582 + Pictilisib; first compound 0.001581 µM) | relative viability (AZD5582 + Pictilisib; first compound 0.005 µM) | relative viability (AZD5582 + Pictilisib; first compound 0.01581 µM) | relative viability (AZD5582 + Pictilisib; first compound 0.05 µM) | relative viability (AZD5582 + OSI-027; first compound 0.001581 µM) | relative viability (AZD5582 + OSI-027; first compound 0.005 µM) | relative viability (AZD5582 + OSI-027; first compound 0.01581 µM) | relative viability (AZD5582 + OSI-027; first compound 0.05 µM) | relative viability (Temozolomide + Dasatinib; first compound 0.2 µM) | relative viability (Temozolomide + Dasatinib; first compound 0.6325 µM) | relative viability (Temozolomide + Dasatinib; first compound 2 µM) | relative viability (Temozolomide + Dasatinib; first compound 6.325 µM) | relative viability (Temozolomide + Dasatinib; first compound 20 µM)
1 | NCI-H2347 | 1.18 | 1.01 | 0.93 | 0.781 | 0.908 | 0.712 | 0.446 | 0.637 | 0.894 | 0.335 | 0.388 | 0.364 | 0.456 | 0.328 | 0.329 | 0.298 | 0.303 | 0.282
2 | SK-LU-1 | 1.08 | 0.906 | 0.803 | 0.377 | 0.407 | 0.422 | 0.357 | 0.494 | 0.325 | 0.288 | 0.273 | 0.344 | 0.253 | 0.196 | 0.178 | 0.206 | 0.143 | 0.197
3 | NCI-H2087 | 1.07 | 0.992 | 0.902 | 1.09 | 0.983 | 0.871 | 1.02 | 0.905 | 0.986 | 0.523 | 0.695 | 0.514 | 0.568 | 0.909 | 0.97 | 1.02 | 0.734 | 0.882
4 | NCI-H727 | 0.907 | 0.804 | 0.865 | 0.665 | 0.693 | 0.258 | 0.4 | 0.413 | 0.257 | 0.51 | 0.473 | 0.508 | 0.529 | 0.332 | 0.406 | 0.334 | 0.273 | 0.299
5 | NCI-H520 | 0.927 | 0.87 | 1 | 0.903 | 0.993 | 0.266 | 0.283 | 0.303 | 0.311 | 0.261 | 0.21 | 0.224 | 0.269 | 0.24 | 0.212 | 0.207 | 0.185 | 0.235
